Values quoted from earlier work in US20250221954A1, “METHODS TO TREAT, PREVENT, OR REDUCE HYPERAMMONEMIA” (priority 2024, published 2025).

Key:
[1] = decrease in clearance with increased dose
[2] = prolonged, multiday maintenance of phenylacetate infusions

| SMILES | elimination [1] | potential neurotoxicity [2] |
| --- | --- | --- |
| O=C([O-])c1ccccc1.[Na+] [benzoate, sodium benzoate] | saturable, non-linear elimination | – |
| O=C([O-])Cc1ccccc1.[Na+] [phenylacetate, sodium phenylacetate] | saturable, non-linear elimination | somnolence, fatigue, and lightheadedness |
